According to paper PMC8742647 (Clinical and Translational Science, 2021):

Legend:
[1] = total clearance after intravenous administration to PXB-mice; type: in vivo, PXB‐mice (chimeric mice with humanized livers); settings: intravenous cassette dose 0.1 mg/kg, N = 3, noncompartmental analysis
[2] = prediction of CLt,human by single-species allometric scaling from PXB-mice; design: species or system humans
[3] = humans; ref Table S1; cited from earlier work
[4] = fraction unbound in plasma, equilibrium dialysis; type: in vitro ADME, humans; settings: fraction unbound in human plasma
[5] = total clearance after intravenous administration to rats; type: in vivo, Sprague–Dawley rats; settings: intravenous cassette dose 0.1 mg/kg, N = 3
[6] = prediction of CLt,human by multispecies allometric scaling, rule of exponent
[7] = prediction of CLt,human by physiologically based scaling using PXB-mice; design: species or system humans
[8] = prediction of CLt,human by in vitro–in vivo extrapolation; design: species or system humans
[9] = fraction unbound in plasma, equilibrium dialysis; type: in vitro ADME, Sprague–Dawley rat; settings: fraction unbound in rat plasma
[10] = ref Table S1; cited from earlier work
[11] = ref Table S1; cited from earlier work; remark: listed apart in the source

CLt, PXB‐mice [1]: 5.98 L/h/kg | Fold error (predicted/observed), PXB‐SSS ([2]; predicted/observed CLt,human): 0.34 | Predicted CLt,human, PXB‐SSS ([2]; scaled from CLt in PXB-mice, exponent 0.75): 0.768 L/h/kg | Predicted CLt,human, FCIM (from CLt in rats, monkeys and dogs and fu,p ratio rat/human): 0.456 L/h/kg | Fold error (predicted/observed), FCIM (predicted/observed CLt,human): 0.20 | f u,p, Humans [4]: 0.148 | CLt, Rats [5]: 2.533 L/h/kg | Predicted CLt,human, ROE ([6]; from CLt in rats, monkeys and dogs): 0.516 L/h/kg | Fold error (predicted/observed), ROE ([6]; predicted/observed CLt,human): 0.23 | Predicted CLt,human, PXB‐PBS ([7]; from CLt in PXB-mice, dispersion model, CLint per hepatocyte assumed equal): 0.984 L/h/kg | Fold error (predicted/observed), PXB‐PBS ([7]; predicted/observed CLt,human): 0.44 | Predicted CLt,human, IVIVE ([8]; from in vitro CLint per human hepatocyte, dispersion model): 0.93 L/h/kg | Fold error (predicted/observed), IVIVE ([8]; predicted/observed CLt,human): 0.41 | f u,p, Rats [9]: 0.169
Compound: CCNC(=O)OC1CCN(c2nncc3cc(OC)c(OC)cc23)CC1 [Carbazeran]
Observed CLt,human [3]: 2.26 L/h/kg | CLt, Dogs [10]: 0.69 L/h/kg | CLt, Monkeys [11]: 5.272 L/h/kg
